pIC50: −log10 of the molar value. “Also recorded” adds a separate entry of the source. Read-outs that look alike come from different tables or passages of the source. One block for each molecule: values may come before it.
How the values were obtained:
[1] = test system: IAPs (cIAP1, cIAP2, XIAP); assay: Immunoblotting of IAPs in MM.1S cells, overall degradation profile, time course and washout; type: cell-based; details: 16 h, western blot, concentration (10 nM to 1 μM)
Protocol: Next, we examined the persistence of IAP degradation in MM.1S cells after a single exposure to 1 μM of 9 and subsequent removal of the compound. […] The reliance on CRL2^VHL was assessed with a neddylation inhibitor MLN4924, which blocks the activity of CRLs (Figure S13A).

RPMI-8826 = assay: CellTiter-Glo cell viability assay, RPMI-8826; type: cell-based
Protocol: (§1) As TNF-α and related signaling cascades represent crucial factors for the single-agent activity of IAP-targeting compounds,[29],[38],[39],[55] the viability inhibition of sensitive cell lines was evaluated in the presence and absence of this inflammatory stimulus. […] These effects were independent of IAP baseline levels (Figure S16), which is in agreement with the previous studies of IAP antagonists.
(§2) Cells were seeded in 384-well plates with respective treatments, and plates were incubated at 37 °C for 96 h. Viability assays were performed with or without the addition of TNF-α at 1 ng/mL. The cell viability readout was measured using the CellTiter-Glo Luminescent Cell Viability Assay (Promega, Madison, USA) and measured with a Synergy LX Multi-Mode plate reader (BioTek, Vermont, USA). All conditions were normalized to the DMSO-treated control. Data represents the mean ± SD of biological triplicates.

JJN3 = assay: CellTiter-Glo cell viability assay, JJN3; type: cell-based
Protocol: as §1, §2

NCI-H929 = assay: CellTiter-Glo cell viability assay, NCI-H929; type: cell-based
Protocol: as §1, §2

HEL = assay: CellTiter-Glo cell viability assay, HEL; type: cell-based
Protocol: as §1, §2

K562 = assay: CellTiter-Glo cell viability assay, K562; type: cell-based
Protocol: as §1, §2

MOLM13 = assay: CellTiter-Glo cell viability assay, MOLM13; type: cell-based
Protocol: as §1, §2

SUDHL4 = assay: CellTiter-Glo cell viability assay, SUDHL4; type: cell-based
Protocol: as §1, §2

DB = assay: CellTiter-Glo cell viability assay, DB; type: cell-based
Protocol: as §1, §2

SUDHL6 = assay: CellTiter-Glo cell viability assay, SUDHL6; type: cell-based
Protocol: as §1, §2

[2] = Log D7.4 measurement by chromatographic (fast-gradient HPLC) method; details: pH 7.4
Protocol: The system was calibrated by plotting the retention times of six different drugs (atenolol, metoprolol, labetalol, diltiazem, triphenylene, and permethrin) versus their literature-known log D7.4 in a calibration line (R^2 = 0.99). Subsequently, the mean retention times of the analytes were taken to calculate their log D7.4 values with the aid of the calibration line. At least two independent measurements of each analyte were performed.

cIAP2 = cIAP2 (Homo sapiens, UniProt Q13489); assay: Immunoblotting (western blot) quantification of cIAP2 levels in MM.1S cells; details: MM.1S cells
Sequence of cIAP2 (Q13489 whole entry): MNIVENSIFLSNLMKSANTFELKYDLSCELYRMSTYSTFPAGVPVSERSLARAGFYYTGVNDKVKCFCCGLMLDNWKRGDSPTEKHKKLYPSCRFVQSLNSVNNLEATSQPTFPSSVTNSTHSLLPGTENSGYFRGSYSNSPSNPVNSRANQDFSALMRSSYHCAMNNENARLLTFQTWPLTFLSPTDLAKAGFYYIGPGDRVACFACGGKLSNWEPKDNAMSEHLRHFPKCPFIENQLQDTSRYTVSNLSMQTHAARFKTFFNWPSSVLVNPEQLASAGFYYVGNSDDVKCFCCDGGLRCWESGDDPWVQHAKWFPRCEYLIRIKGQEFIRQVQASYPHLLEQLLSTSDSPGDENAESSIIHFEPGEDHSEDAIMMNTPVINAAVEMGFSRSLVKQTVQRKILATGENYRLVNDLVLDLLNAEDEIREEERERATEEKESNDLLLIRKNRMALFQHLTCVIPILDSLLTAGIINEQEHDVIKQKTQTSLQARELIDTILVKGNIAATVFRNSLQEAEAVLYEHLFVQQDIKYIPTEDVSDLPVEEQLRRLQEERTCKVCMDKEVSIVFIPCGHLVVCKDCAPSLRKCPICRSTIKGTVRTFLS

XIAP = XIAP (Homo sapiens, UniProt P98170); assay: Immunoblotting (western blot) quantification of XIAP levels in MM.1S cells; details: MM.1S cells, 16 h, western blot, 0.1 or 1 μM
Sequence of XIAP (P98170 whole entry): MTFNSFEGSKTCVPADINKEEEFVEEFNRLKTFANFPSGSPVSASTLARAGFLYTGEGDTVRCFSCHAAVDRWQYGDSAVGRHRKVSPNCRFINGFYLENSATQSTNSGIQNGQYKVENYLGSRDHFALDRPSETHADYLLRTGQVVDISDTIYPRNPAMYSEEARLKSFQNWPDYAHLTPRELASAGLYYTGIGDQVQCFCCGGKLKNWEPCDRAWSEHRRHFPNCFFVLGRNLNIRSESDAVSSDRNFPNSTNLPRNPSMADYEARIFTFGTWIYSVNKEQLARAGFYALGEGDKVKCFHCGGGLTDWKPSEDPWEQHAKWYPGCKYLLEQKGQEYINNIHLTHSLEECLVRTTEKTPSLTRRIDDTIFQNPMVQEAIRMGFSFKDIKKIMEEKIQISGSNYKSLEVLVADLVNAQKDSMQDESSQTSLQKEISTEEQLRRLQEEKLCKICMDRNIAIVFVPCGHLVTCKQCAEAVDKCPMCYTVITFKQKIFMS

[3] = MM cell line, 96 h, TNFα-challenged, read-out: IC50 cell viability RPMI-8826
[4] = SI csv, head prints only the cell line, no quantity or unit, values parallel Table 1/S8, read-out: RPMI-8826
[5] = Homo sapiens, JJN-3, SI csv, head prints only the cell line, no quantity or unit, values parallel Table 1/S8, read-out: JJN3
[6] = Homo sapiens, SI csv, head prints only the cell line, no quantity or unit, values parallel Table 1/S8, read-out: NCI-H929
[7] = Homo sapiens, SI csv, head prints only the cell line, no quantity or unit, values parallel Table 1/S8, read-out: K562
[8] = Homo sapiens, SU-DHL-4, SI csv, head prints only the cell line, no quantity or unit, values parallel Table 1/S8, read-out: SUDHL4

- pIC50 (NCI-H929; Homo sapiens, NCI-H929, MM cell line, 96 h, TNFα-challenged, read-out: IC50 cell viability NCI-H929): < 5.30
- pIC50 (NCI-H929; [6]): < 5.00
- pIC50 (K562; Homo sapiens, K562, AML cell line, 96 h, TNFα-challenged, read-out: IC50 cell viability K562): < 5.30
- pIC50 (K562; [7]): < 5.00
- pIC50 (MOLM13; Homo sapiens, MOLM-13, AML cell line, 96 h, TNFα-challenged, read-out: IC50 cell viability MOLM13): < 6.00
- pIC50 (SUDHL4; Homo sapiens, SU-DHL-4, DLBCL cell line, 96 h, TNFα-challenged, read-out: IC50 cell viability SUDHL4): < 5.30
- pIC50 (SUDHL4; [8]): < 5.00
- pIC50 (SUDHL6; Homo sapiens, SU-DHL-6, DLBCL cell line, 96 h, TNFα-challenged, read-out: IC50 cell viability SUDHL6): 6.77
- chromatographic logD [2]: 3.3
Molecule: CN[C@@H](C)C(=O)N[C@H](C(=O)N1C[C@@H](Oc2cccc(OCCCCC(=O)N[C@H](C(=O)N3C[C@@H](O)C[C@H]3C(=O)NCc3ccc(-c4scnc4C)cc3)C(C)(C)C)c2)C[C@H]1C(=O)N[C@@H]1CCCc2ccccc21)C1CCCCC1 [PROTAC 11, (2S,4S)-1-((S)-2-Cyclohexyl-2-((S)-2-(methylamino)propanamido)acetyl)-4-(3-((5-(((S)-1-((2S,4S)-4-hydroxy-2-((4-(4-methylthiazol-5-yl)benzyl)carbamoyl)pyrrolidin-1-yl)-3,3-dimethyl-1-oxobutan-2-yl)amino)-5-oxopentyl)oxy)phenoxy)-N-((R)-1,2,3,4-tetrahydronaphthalen-1-yl)pyrrolidine-2-carboxamide]
- IAP degradation profile (in words) [1]: induce only cIAP1 degradation; also recorded: only induced cIAP1 degradation
- pIC50 (RPMI-8826; [3]): < 5.30
- pIC50 (RPMI-8826; [4]): < 5.00
- pIC50 (JJN3; Homo sapiens, JJN-3, MM cell line, 96 h, TNFα-challenged, read-out: IC50 cell viability JJN3): < 5.30
- pIC50 (JJN3; [5]): < 5.00
- pIC50 (HEL; Homo sapiens, HEL, AML cell line, 96 h, TNFα-challenged, read-out: IC50 cell viability HEL): < 5.00
- pIC50 (DB; Homo sapiens, DB, DLBCL cell line, 96 h, TNFα-challenged, read-out: IC50 cell viability DB): < 5.30

Molecule: VH298 [reference compound]
- IAP degradation profile (in words) [1]: did not affect the levels of IAPs; also recorded: has no effects on the investigated proteins
- pIC50 (RPMI-8826; [3]): < 5.00
- pIC50 (JJN3; MM cell line, 96 h, TNFα-challenged, read-out: IC50 cell viability JJN3): < 5.00
- pIC50 (NCI-H929; MM cell line, 96 h, TNFα-challenged, read-out: IC50 cell viability NCI-H929): < 5.00
- pIC50 (HEL; AML cell line, 96 h, TNFα-challenged, read-out: IC50 cell viability HEL): < 5.00
- pIC50 (K562; AML cell line, 96 h, TNFα-challenged, read-out: IC50 cell viability K562): < 5.00
- pIC50 (MOLM13; AML cell line, 96 h, TNFα-challenged, read-out: IC50 cell viability MOLM13): < 5.00
- pIC50 (SUDHL4; DLBCL cell line, 96 h, TNFα-challenged, read-out: IC50 cell viability SUDHL4): < 5.00
- pIC50 (DB; DLBCL cell line, 96 h, TNFα-challenged, read-out: IC50 cell viability DB): < 5.00
- pIC50 (SUDHL6; DLBCL cell line, 96 h, TNFα-challenged, read-out: IC50 cell viability SUDHL6): < 5.00
- %remaining protein cIAP2 (cIAP2; 16 h treatment at 0.1 μM, normalized to loading control and DMSO): 81%

- pIC50 (NCI-H929; [6]): 5.70
- pIC50 (K562; [7]): 6.08
- pIC50 (MOLM13; Homo sapiens, MOLM-13, SI csv, head prints only the cell line, no quantity or unit, values parallel Table 1/S8, read-out: MOLM13): 6.20
- pIC50 (SUDHL4; [8]): 6.00
- pIC50 (SUDHL6; Homo sapiens, SU-DHL-6, SI csv, head prints only the cell line, no quantity or unit, values parallel Table 1/S8, read-out: SUDHL6): 6.36
- chromatographic logD [2]: 6
- remaining protein cIAP2 (cIAP2; 16 h, 1 μM): 32%
Molecule: CN[C@@H](C)C(=O)N[C@H](C(=O)N1C[C@@H](Oc2cccc(OCCOCCCCCCOCCCCCCNc3cccc4c3C(=O)N(C3CCC(=O)N(C)C3=O)C4=O)c2)C[C@H]1C(=O)N[C@@H]1CCCc2ccccc21)C1CCCCC1 (stereo partly drawn) [PROTAC 28, (2S,4S)-1-((S)-2-Cyclohexyl-2-((S)-2-(methylamino)propanamido)acetyl)-4-(3-(2-((6-((6-((2-(1-methyl-2,6-dioxopiperidin-3-yl)-1,3-dioxoisoindolin-4-yl)amino)hexyl)oxy)hexyl)oxy)ethoxy)phenoxy)-N-((R)-1,2,3,4-tetrahydronaphthalen-1-yl)pyrrolidine-2-carboxamide]
- pIC50 (RPMI-8826; [4]): 6.00
- pIC50 (JJN3; [5]): 6.05
- pIC50 (HEL; Homo sapiens, SI csv, head prints only the cell line, no quantity or unit, values parallel Table 1/S8, read-out: HEL): 6.11
- pIC50 (DB; Homo sapiens, SI csv, head prints only the cell line, no quantity or unit, values parallel Table 1/S8, read-out: DB): 6.24
- XIAP degradation (in words) (XIAP): failed to degrade XIAP at 1 μM concentration; also recorded: only marginally degrades XIAP

— paper PMC10108347, “Heterobifunctional Ligase Recruiters Enable pan-Degradation of Inhibitor of Apoptosis Proteins” (Journal of Medicinal Chemistry, 2023)
